Where “and” joins values, the source holds several entries; their conditions need not be identical. Equal entries are not always repeated.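 Five compound concentrations were applied to cells in 96-well plates for 48 hours; endpoints were derived by simple linear interpolation of the resulting dose-response curve. Here, GI50 denotes the concentration required for 50% inhibition of growth. TGI denotes the concentration required for complete inhibition of growth.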

The test system of the first experiment is DMS 273 small cell lung. Kind of experiment: NCI anticancer screen, dose series, 48 h.
In turn, `CCC1(Br)C(=O)NC(=O)N(C2CC(O)C(CO)O2)C1N=[N+]=[N-]` (stereo not drawn) had a TGI of over 100 µM.

As to `N=C(N)SCc1cn2ccccc2n1`, the TGI is over 100 µM.

Consider `Clc1ccc([O][In]([O]c2ccc(Cl)cn2)[O]c2ccc(Cl)cn2)nc1`, for which the GI50 is over 100000 nM and the TGI was over 100 µM.

On to `COC(=O)C1=CCON(c2ccccc2)C1c1ccccc1` (stereo not drawn), for which the TGI is over 100 µM.

The compound `COC(=O)c1nc(NN)[nH]c(=O)c1CCCCCc1c(C(=O)OC)[nH]c(NN)cc1=O` yielded a TGI of over 100 µM.

In the case of `CC1(C)C(=O)C(O)=CC2C1=CCC1C2(C)C(=O)CC2(C)C(C(C)(O)C(=O)CC(O)C(C)(C)O)C(O)CC12C` (stereo not drawn), the TGI amounted to 9.61 µM.

Consider `COc1cc(C2c3cc4c(cc3[C@@H](Nc3ccc(N(C)C)cc3)[C@H]3COC(=O)C23)OCO4)cc(OC)c1O` (stereo partly drawn), for which the GI50 is 202 nM; the TGI was 0.877 µM and 2.47 µM.

Consider `O=c1nc(-c2ccccc2)c2c3c(cccn13)CCC2`, for which the TGI is over 100 µM.

For `COc1ccc([C@H]2CC(=O)N3CCCC3N2)cc1` (stereo partly drawn), the TGI was over 100 µM.

For the compound `O=C(c1ccccc1)c1c(CC(O)c2cccnc2)n(C(=O)c2ccccc2)c2ccccc12` (stereo not drawn), the TGI amounted to 56.2 µM.

Turning to `Cc1nc2c(n1CC(C)(C)C)C(=O)c1ccccc1C2=O`, the TGI was over 100 µM.

`COc1ccc(C(C2=C(C)C(=O)c3ccccc3C2=O)c2ccc(C(C)C)cc(=O)c2O)cc1` (stereo not drawn): the TGI worked out at 5.4 µM.

With `CC(C)N(C(=O)C12C3C4C1C1C2C3C41C(O)C(C)(C)C)C(C)C` (stereo not drawn), the TGI was over 50 µM.

As for `N#CC(C#N)SCc1ccccc1`, the TGI was over 100 µM.

For the next experiment, the system named is HOP-18 NSCLC. Kind of experiment: NCI anticancer screen, dose series, 48 h.
`O=C1c2ccccc2N2OC3(N4CCCC4)CCCC3C12c1ccccc1` (stereo not drawn) came in with a TGI of over 100 µM.

As to `COc1ccc(C2C(Cl)C(=O)N2n2cnc3ccccc3c2=O)cc1OC` (stereo not drawn), the TGI was over 100 µM.

The compound `N=C(N)SCc1cn2ccccc2n1` came in with a TGI of over 100 µM.

In the case of `Clc1ccc([O][In]([O]c2ccc(Cl)cn2)[O]c2ccc(Cl)cn2)nc1`, the GI50 is over 100 µM and the TGI is over 100 µM.

`COC(=O)C1=CCON(c2ccccc2)C1c1ccccc1` (stereo not drawn) gave a TGI of over 100 µM.

As to `COC(=O)c1nc(NN)[nH]c(=O)c1CCCCCc1c(C(=O)OC)[nH]c(NN)cc1=O`, the TGI is over 100 µM.

Compound `CC1(C)C(=O)C(O)=CC2C1=CCC1C2(C)C(=O)CC2(C)C(C(C)(O)C(=O)CC(O)C(C)(C)O)C(O)CC12C` (stereo not drawn) came in with a TGI of 12.3 µM.

Compound `COc1cc(C2c3cc4c(cc3[C@@H](Nc3ccc(N(C)C)cc3)[C@H]3COC(=O)C23)OCO4)cc(OC)c1O` (stereo partly drawn) showed a TGI of 17 µM.

`COc1ccc([C@H]2CC(=O)N3CCCC3N2)cc1` (stereo partly drawn) showed a TGI of over 100 µM.

A further experiment relates to KM20L2 colon. Kind of experiment: NCI anticancer screen, dose series, 48 h.
`O=C1c2ccccc2N2OC3(N4CCCC4)CCCC3C12c1ccccc1` (stereo not drawn) showed a TGI of over 100 µM.

With `COc1ccc(C2C(Cl)C(=O)N2n2cnc3ccccc3c2=O)cc1OC` (stereo not drawn), the TGI was over 100 µM.

The compound `CCC1(Br)C(=O)NC(=O)N(C2CC(O)C(CO)O2)C1N=[N+]=[N-]` (stereo not drawn) came in with a TGI of over 100 µM.

Regarding `Clc1ccc([O][In]([O]c2ccc(Cl)cn2)[O]c2ccc(Cl)cn2)nc1`, the GI50 was over 100000 nM and the TGI was over 100 µM.

As for `COC(=O)C1=CCON(c2ccccc2)C1c1ccccc1` (stereo not drawn), the TGI was over 100 µM.

As to `COC(=O)c1nc(NN)[nH]c(=O)c1CCCCCc1c(C(=O)OC)[nH]c(NN)cc1=O`, the TGI is over 100 µM.

In turn, `CC1(C)C(=O)C(O)=CC2C1=CCC1C2(C)C(=O)CC2(C)C(C(C)(O)C(=O)CC(O)C(C)(C)O)C(O)CC12C` (stereo not drawn) gave a TGI of 42.4 µM.

Consider `COc1cc(C2c3cc4c(cc3[C@@H](Nc3ccc(N(C)C)cc3)[C@H]3COC(=O)C23)OCO4)cc(OC)c1O` (stereo partly drawn), for which the GI50 was 2410 nM; the TGI was 3.02 µM and 10.7 µM.

Turning to `COc1ccc([C@H]2CC(=O)N3CCCC3N2)cc1` (stereo partly drawn), the TGI was over 100 µM.

Compound `O=C(c1ccccc1)c1c(CC(O)c2cccnc2)n(C(=O)c2ccccc2)c2ccccc12` (stereo not drawn) returned a TGI of 42 µM.

As to `Cc1nc2c(n1CC(C)(C)C)C(=O)c1ccccc1C2=O`, the TGI was over 100 µM.

Take `CC(C)N(C(=O)C12C3C4C1C1C2C3C41C(O)C(C)(C)C)C(C)C` (stereo not drawn): the TGI is over 50 µM.

Compound `N#CC(C#N)SCc1ccccc1` had a TGI of 63.4 µM.

Another experiment deals with LXFL 529 NSCLC. Kind of experiment: NCI anticancer screen, dose series, 48 h.
`O=C1c2ccccc2N2OC3(N4CCCC4)CCCC3C12c1ccccc1` (stereo not drawn) displayed a TGI of over 100 µM.

In turn, `COc1ccc(C2C(Cl)C(=O)N2n2cnc3ccccc3c2=O)cc1OC` (stereo not drawn) had a TGI of over 100 µM.

`CCC1(Br)C(=O)NC(=O)N(C2CC(O)C(CO)O2)C1N=[N+]=[N-]` (stereo not drawn): the TGI was over 100 µM.

In the case of `COC(=O)C1=CCON(c2ccccc2)C1c1ccccc1` (stereo not drawn), the TGI was over 100 µM.

As for `COC(=O)c1nc(NN)[nH]c(=O)c1CCCCCc1c(C(=O)OC)[nH]c(NN)cc1=O`, the TGI is over 100 µM.

Consider `CC1(C)C(=O)C(O)=CC2C1=CCC1C2(C)C(=O)CC2(C)C(C(C)(O)C(=O)CC(O)C(C)(C)O)C(O)CC12C` (stereo not drawn), for which the TGI is 17.4 µM.

In the case of `COc1cc(C2c3cc4c(cc3[C@@H](Nc3ccc(N(C)C)cc3)[C@H]3COC(=O)C23)OCO4)cc(OC)c1O` (stereo partly drawn), the GI50 is 6.16 µM; the TGI was 11.1 µM and 20.6 µM.

Turning to `O=c1nc(-c2ccccc2)c2c3c(cccn13)CCC2`, the TGI was over 100 µM.

In turn, `COc1ccc([C@H]2CC(=O)N3CCCC3N2)cc1` (stereo partly drawn) showed a TGI of over 100 µM.

In turn, `Cc1nc2c(n1CC(C)(C)C)C(=O)c1ccccc1C2=O` displayed a TGI of over 100 µM.

Take `COc1ccc(C(C2=C(C)C(=O)c3ccccc3C2=O)c2ccc(C(C)C)cc(=O)c2O)cc1` (stereo not drawn): the TGI is over 100 µM.

`CC(C)N(C(=O)C12C3C4C1C1C2C3C41C(O)C(C)(C)C)C(C)C` (stereo not drawn) came in with a TGI of over 50 µM.

As for `N#CC(C#N)SCc1ccccc1`, the TGI was over 100 µM.

The subject of another experiment is M19-MEL melanoma. The experiment is described as follows: NCI anticancer screen, dose series, 48 h.
In the case of `O=C1c2ccccc2N2OC3(N4CCCC4)CCCC3C12c1ccccc1` (stereo not drawn), the TGI is over 100 µM.

`COc1ccc(C2C(Cl)C(=O)N2n2cnc3ccccc3c2=O)cc1OC` (stereo not drawn) showed a TGI of over 100 µM.

`CCC1(Br)C(=O)NC(=O)N(C2CC(O)C(CO)O2)C1N=[N+]=[N-]` (stereo not drawn) gave a TGI of over 100 µM.

Take `N=C(N)SCc1cn2ccccc2n1`: the TGI was over 100 µM.

`Clc1ccc([O][In]([O]c2ccc(Cl)cn2)[O]c2ccc(Cl)cn2)nc1`: the GI50 was over 100000 nM and the TGI is over 100 µM.

`COC(=O)C1=CCON(c2ccccc2)C1c1ccccc1` (stereo not drawn) showed a TGI of over 100 µM.

The compound `COC(=O)c1nc(NN)[nH]c(=O)c1CCCCCc1c(C(=O)OC)[nH]c(NN)cc1=O` had a TGI of over 100 µM.

Take `CC1(C)C(=O)C(O)=CC2C1=CCC1C2(C)C(=O)CC2(C)C(C(C)(O)C(=O)CC(O)C(C)(C)O)C(O)CC12C` (stereo not drawn): the TGI was over 97.2 µM.

With `COc1cc(C2c3cc4c(cc3[C@@H](Nc3ccc(N(C)C)cc3)[C@H]3COC(=O)C23)OCO4)cc(OC)c1O` (stereo partly drawn), the GI50 was 2530 nM; the TGI was 12.3 µM and 16.5 µM.

`O=c1nc(-c2ccccc2)c2c3c(cccn13)CCC2`: the TGI was over 100 µM.

`COc1ccc([C@H]2CC(=O)N3CCCC3N2)cc1` (stereo partly drawn) came in with a TGI of over 100 µM.

The compound `O=C(c1ccccc1)c1c(CC(O)c2cccnc2)n(C(=O)c2ccccc2)c2ccccc12` (stereo not drawn) showed a TGI of 38.3 µM.

Turning to `COc1ccc(C(C2=C(C)C(=O)c3ccccc3C2=O)c2ccc(C(C)C)cc(=O)c2O)cc1` (stereo not drawn), the TGI came out at 4.92 µM.

As to `CC(C)N(C(=O)C12C3C4C1C1C2C3C41C(O)C(C)(C)C)C(C)C` (stereo not drawn), the TGI is over 50 µM.

Compound `N#CC(C#N)SCc1ccccc1` gave a TGI of over 100 µM.

In a further experiment the test system is SNB-78 CNS. Kind of experiment: NCI anticancer screen, dose series, 48 h.
`O=C1c2ccccc2N2OC3(N4CCCC4)CCCC3C12c1ccccc1` (stereo not drawn): the TGI was over 100 µM.

For `COc1ccc(C2C(Cl)C(=O)N2n2cnc3ccccc3c2=O)cc1OC` (stereo not drawn), the TGI is over 100 µM.

Turning to `CCC1(Br)C(=O)NC(=O)N(C2CC(O)C(CO)O2)C1N=[N+]=[N-]` (stereo not drawn), the TGI was over 100 µM.

`N=C(N)SCc1cn2ccccc2n1` registered a TGI of over 100 µM.

In the case of `Clc1ccc([O][In]([O]c2ccc(Cl)cn2)[O]c2ccc(Cl)cn2)nc1`, the GI50 is over 100 µM and the TGI was over 100 µM.

For the compound `COC(=O)c1nc(NN)[nH]c(=O)c1CCCCCc1c(C(=O)OC)[nH]c(NN)cc1=O`, the TGI is over 100 µM.

`CC1(C)C(=O)C(O)=CC2C1=CCC1C2(C)C(=O)CC2(C)C(C(C)(O)C(=O)CC(O)C(C)(C)O)C(O)CC12C` (stereo not drawn) registered a TGI of 25.9 µM.

Consider `COc1cc(C2c3cc4c(cc3[C@@H](Nc3ccc(N(C)C)cc3)[C@H]3COC(=O)C23)OCO4)cc(OC)c1O` (stereo partly drawn), for which the GI50 is 8.2 µM; the TGI is 22.2 µM and 37.6 µM.

In turn, `O=c1nc(-c2ccccc2)c2c3c(cccn13)CCC2` yielded a TGI of over 100 µM.

The compound `COc1ccc([C@H]2CC(=O)N3CCCC3N2)cc1` (stereo partly drawn) returned a TGI of over 100 µM.

In turn, `Cc1nc2c(n1CC(C)(C)C)C(=O)c1ccccc1C2=O` displayed a TGI of over 100 µM.

As for `COc1ccc(C(C2=C(C)C(=O)c3ccccc3C2=O)c2ccc(C(C)C)cc(=O)c2O)cc1` (stereo not drawn), the TGI worked out at 35.1 µM.

In turn, `CC(C)N(C(=O)C12C3C4C1C1C2C3C41C(O)C(C)(C)C)C(C)C` (stereo not drawn) displayed a TGI of over 50 µM.

`N#CC(C#N)SCc1ccccc1` yielded a TGI of over 91.7 µM.

The values are drawn from PubChem BioAssay (NCI).
